Here are results for one compound from article PMC11420776 (RSC Advances, 2024).

One assay relates to HCT-15 (colon cancer). Description: NCI 60-cell one-dose antiproliferative screen. The note with it: one dose 10 μM. The format is cell-based, human.
A further assay has as its system HOP-92 (NSC lung cancer). In words: NCI 60-cell one-dose antiproliferative screen. The format is cell-based, human. To be noted: one dose 10 μM.
The next assay concerns HOP-62 (NSC lung cancer). In words: NCI 60-cell one-dose antiproliferative screen. The format is cell-based, human. The note with it: one dose 10 μM.
The subject of the next assay is SNB-75 (CNS cancer). Description: NCI 60-cell one-dose antiproliferative screen. The format is cell-based, human. To be noted: one dose 10 μM.
Assay [1] has as its system NCI-H226 (NSC lung cancer). Description: NCI 60-cell one-dose antiproliferative screen. Type of assay: cell-based, human. The note with it: one dose 10 μM.
The next assay has as its system SK-OV-3 (ovarian cancer). In words: NCI 60-cell one-dose antiproliferative screen. To be noted: one dose 10 μM. The format is cell-based, human.
The test system of a further assay is OVCAR-5 (ovarian cancer). In words: NCI 60-cell one-dose antiproliferative screen. The format is cell-based, human. The note with it: one dose 10 μM.
The test system of a further assay is T-47D (breast cancer). Description: NCI 60-cell one-dose antiproliferative screen. Type of assay: cell-based, human. To be noted: one dose 10 μM.
The subject of assay [2] is breast cancer cell line MCF7. Description: MTT cytotoxicity assay, MCF7. The format is cell-based, human.
In the next assay the test system is DU-145 (prostate cancer). In words: NCI 60-cell one-dose antiproliferative screen. The format is cell-based, human. The note with it: one dose 10 μM.
The next assay has as its system SK-MEL-2 (melanoma). Description: NCI 60-cell one-dose antiproliferative screen. The format is cell-based, human. To be noted: one dose 10 μM.
The subject of the next assay is OVCAR-4 (ovarian cancer). In words: NCI 60-cell one-dose antiproliferative screen. The format is cell-based, human. The note with it: one dose 10 μM.
A further assay deals with OVCAR-3 (ovarian cancer). Description: NCI 60-cell one-dose antiproliferative screen. The format is cell-based, human. The note with it: one dose 10 μM.
The next assay concerns the target c-Met kinase (Homo sapiens, UniProt P08581). Description: c-Met kinase inhibition assay. Type of assay: biochemical.

Each structure is given as a SMILES string.

Sequence of c-Met kinase (P08581 25-1390): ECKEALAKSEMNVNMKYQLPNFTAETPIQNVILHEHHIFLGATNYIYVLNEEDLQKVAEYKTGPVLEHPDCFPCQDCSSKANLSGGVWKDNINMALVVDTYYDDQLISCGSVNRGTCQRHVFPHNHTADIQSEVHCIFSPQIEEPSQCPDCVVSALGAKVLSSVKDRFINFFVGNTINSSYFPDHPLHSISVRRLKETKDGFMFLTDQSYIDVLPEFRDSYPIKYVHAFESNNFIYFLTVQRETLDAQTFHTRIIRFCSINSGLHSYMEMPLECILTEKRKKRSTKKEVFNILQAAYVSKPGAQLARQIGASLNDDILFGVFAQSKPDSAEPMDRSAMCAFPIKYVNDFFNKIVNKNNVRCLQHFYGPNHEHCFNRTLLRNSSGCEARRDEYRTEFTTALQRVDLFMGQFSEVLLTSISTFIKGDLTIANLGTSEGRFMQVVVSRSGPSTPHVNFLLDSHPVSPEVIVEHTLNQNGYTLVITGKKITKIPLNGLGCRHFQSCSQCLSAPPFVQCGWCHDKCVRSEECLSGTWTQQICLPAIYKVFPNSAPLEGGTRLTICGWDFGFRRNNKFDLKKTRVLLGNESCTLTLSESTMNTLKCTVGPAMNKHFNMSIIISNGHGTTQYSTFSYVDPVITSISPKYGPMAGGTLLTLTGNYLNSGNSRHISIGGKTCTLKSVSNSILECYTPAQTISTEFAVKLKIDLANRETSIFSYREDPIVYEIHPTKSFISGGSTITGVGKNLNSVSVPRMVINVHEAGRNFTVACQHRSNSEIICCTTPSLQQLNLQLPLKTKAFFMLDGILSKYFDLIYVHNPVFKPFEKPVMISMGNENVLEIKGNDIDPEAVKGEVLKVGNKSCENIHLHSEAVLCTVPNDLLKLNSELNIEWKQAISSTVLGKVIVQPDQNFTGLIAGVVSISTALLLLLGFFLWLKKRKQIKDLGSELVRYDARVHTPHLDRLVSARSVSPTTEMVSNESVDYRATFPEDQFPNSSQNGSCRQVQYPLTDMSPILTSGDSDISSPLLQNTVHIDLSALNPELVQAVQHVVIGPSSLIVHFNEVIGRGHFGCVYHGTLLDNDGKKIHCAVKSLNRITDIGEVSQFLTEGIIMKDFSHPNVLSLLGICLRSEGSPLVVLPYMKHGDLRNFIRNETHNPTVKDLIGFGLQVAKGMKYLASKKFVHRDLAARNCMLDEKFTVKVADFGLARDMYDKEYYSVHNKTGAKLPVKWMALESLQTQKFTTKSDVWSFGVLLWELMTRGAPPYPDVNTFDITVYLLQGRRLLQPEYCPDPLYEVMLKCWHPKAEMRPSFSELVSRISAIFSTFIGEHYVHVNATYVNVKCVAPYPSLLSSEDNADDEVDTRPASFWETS

In the case of `COc1ccc(-c2nnc3ccc(NN=Cc4ccc(O)cc4)nn23)cc1` [Compound 4g, 4-((2-(3-(4-Methoxyphenyl)-[1,2,4]triazolo[4,3-b]pyridazin-6-yl)hydrazono)methyl)phenol], the GI% in the assay with HCT-15 (colon cancer) is on record as 73.30%; in the assay on HOP-92 (NSC lung cancer), 68.67%; with HOP-62 (NSC lung cancer), “— (— GI% is below 15%)”; in the assay with SNB-75 (CNS cancer), 46.38%; in assay [1], 22.48%; with SK-OV-3 (ovarian cancer), “— (— GI% is below 15%)”. Moreover, the GI% result is “— (— GI% is below 15%)” with OVCAR-5 (ovarian cancer); 54.64% in the assay on T-47D (breast cancer); 48.11% with DU-145 (prostate cancer); 26.79% in the assay on SK-MEL-2 (melanoma); 52.11% in the assay with OVCAR-4 (ovarian cancer); 62.40% with OVCAR-3 (ovarian cancer). The IC50 came out at 560 ± 30 nM in [2] (Homo sapiens, MCF7, 72 h, read-out: Cytotoxicity IC50 MCF7) and 163 ± 10 nM against c-Met kinase. Further, in assay [2] (IC50 on normal cells (MCF10a) / IC50 on cancer cells (MCF7)), the Selectivity index is 19.11.
